{"source": "paper PMC9330042", "about": "“Synthesis and Biological Studies of Novel Aminophosphonates and Their Metal Carbonyl Complexes (Fe, Ru)” (International Journal of Molecular Sciences, 2022)", "data": [{"system": "V79 cell line", "assay": "MTT cytotoxicity test", "type": "cell-based, Cricetulus griseus", "conditions": "V79 cells, 24 h, tested range 100–1000 µM; viability below 70% indicates cytotoxicity", "protocol": "Cell viability below 70% indicates cytotoxicity.\nV79 cells (Cricetulus griseus lung fibroblast cell line) (European Collection of Cell Culture) were grown in MEM (PAN-Biotech, Aidenbach, Germany) containing 2 mM glutamine (Sigma Aldrich, Darmstadt, Germany)), 1% non-essential amino acids (Biological Industries, Cromwell, U.S), 10% FBS (Biowest, Nuaillé, France), and 100 units/mL penicillin and […] (Biological Industries, Cromwell, U.S). Cells were plated and grown in an incubator at 37 °C with 5% CO2 to 80% confluence before the initiation of the assay.\nV79 cells were seeded at a density of 1 × 10^4 cells per well and were incubated for 24 h. After 24 h, the medium was removed from the wells, and cells were exposed to the compound solutions over a range of concentrations or nothing but culture medium (blank control). Cells were further incubated for an additional 24 h. At the end, the medium was removed and MTT solution (0.75 mg/mL) was added. Next, plates were incubated in the dark for 2 h at 37 °C. Then, the MTT solution was removed and DMSO was added to each well. Plates were incubated for 10 min at room temperature. The absorbance at 570 nm was measured on a microplate reader. Cell viability was expressed as a percentage of the control values (blank).", "values": [{"smiles": "CCOP(=O)(Cc1ccc(CN)cc1)OCC", "note": "[8c]", "Cytotoxicity (in words)": "Non-toxic"}, {"smiles": "CCOP(=O)(Cc1cccc(CN)c1)OCC", "note": "[8b]", "Cytotoxicity (in words)": "Non-toxic"}, {"smiles": "CCOP(=O)(Cc1ccccc1CN)OCC", "note": "[8a]", "Cytotoxicity (in words)": "Non-toxic"}]}]}
